In US20260232767A1, “INTERLEUKIN-23 RECEPTOR ANTAGONIST PEPTIDES FOR USE IN THE TREATMENT OF PSORIASIS” (Janssen Pharmaceutica NV, priority 2023, published 2026):
Like-named read-outs stand apart in the source and are kept apart here.

Legend:
[1] = test system: neutralizing antibodies to the IL-23 receptor antagonist peptide; settings: through Week 16
[2] = test system: anti-drug antibodies to the IL-23 receptor antagonist peptide; settings: for Subjects negative for treatment-emergent anti-peptide antibodies, % / Subjects positive for treatment-emergent anti-peptide antibodies, %: through Week 16 or Follow-up Week 20; for Subjects positive for treatment-emergent anti-peptide antibodies at any time, %: through Week 16
[3] = test system: subjects with moderate-to-severe plaque psoriasis; assay: PSSD symptoms and signs scores, Example 1; assay type: in vivo, human; settings: each dose group vs placebo; Week 16
Excerpt: The Psoriasis Symptom and Sign Diary (PSSD) includes patient-reported outcome (PRO) questionnaires designed to measure the severity of psoriasis symptoms and signs for the assessment of treatment benefit. This study uses a 7-day recall version of the PSSD that asks the participant to answer the questions thinking about the last 7 days. The PSSD is a self-administered PRO instrument and includes 11 items covering symptoms (itch, pain, stinging, burning, and skin tightness) and patient-observable signs (skin dryness, cracking, scaling, shedding or flaking, redness, and bleeding) using 0 to 10 numerical rating scales for severity. Two subscores will be derived each ranging from 0 to 100: the psoriasis symptom score and the psoriasis sign score. A higher score indicates more severe disease.
Efficacy, PK, immunogenicity, biomarker, pharmacogenomic, and safety criteria were measured during the treatment. Subjects were provided with an electronic device to enter patient-reported outcome (PRO) data at each study visit. All visit-specific PRO assessments were conducted/completed before any tests, procedures or other clinical assessments, with the exception of the urine pregnancy test and urinalysis, to prevent influencing subject perceptions.

IL-17A = assay: Serum IL-17A immunoassay; assay type: in vivo, human; settings: all treatment groups relative to placebo
Experimental: To evaluate psoriasis relevant systemic biomarkers (Beta-defensin 2 (BD-2), IL-17A, IL-17F, and IL-22), protein concentrations were measured in serum using validated immunoassays. The IL-17A (Catalog #03-0159-00) and IL-17F (Catalog #03-0164-00) assays used are commercially available SMC™-based high sensitivity immunoassays produced by the EMD Millipore Corporation. The manufacturer's protocols were followed and analyzed on the Erenna® instrument platform except for the use of 11 μL Elution Buffer B. While the IL-22 assay is also based on the SMC™ platform and run on the Erenna instrument, the assay was developed internally as a coated plate-based assay. The development and optimization of the BD-2 assay was done on the Meso Scale Discovery on the electrochemiluminescence-based platform, a division of Meso Scale Diagnostics LLC (MSD). For all assays, concentration adjustments were made to values measuring below empirically defined LLOQ or empirically defined ULOQ values. Assay QC verified performance of generated standard curves (average concentration recovery & CV of technical replicates) and control samples (inter-assay plate agreement (CV)).
Serum levels of psoriasis disease biomarkers BD-2, IL-22, IL-17A, and IL-17F relative to baseline were analyzed in patients who received placebo or the compound of Formula (I) and compared to clinical response. […]

CC(=O)NCCCC[C@@H]1NC(=O)[C@H](Cc2c[nH]c3c(C)cccc23)NC(=O)[C@H]([C@@H](C)O)NC(=O)[C@H](CC(N)=O)NC(=O)[C@@H](NC(C)=O)C(C)(C)SSC(C)(C)[C@@H](C(=O)N[C@@H](Cc2ccc(OCCN)cc2)C(=O)N[C@@H](Cc2ccc3ccccc3c2)C(=O)NC2(C(=O)N[C@@H](CCC(=O)O)C(=O)N[C@@H](CC(N)=O)C(=O)N[C@@H](Cc3cccnc3)C(=O)N(C)CC(N)=O)CCOCC2)NC1=O [IL-23 receptor antagonist peptide, Ac-[Pen]*-N-T-[W(7-Me)]-[Lys(Ac)]-[Pen]*-Phe[4-(2-aminoethoxy)]-[2-Nal]-[THP]-E-N-[3-Pal]-Sarc-NH2 (*[Pen]-[Pen]* formdisulfidebond)]
Subjects negative for neutralizing antibodies, % ([1]; 25 mg QD, 1 evaluable): (100%) | Subjects negative for neutralizing antibodies, % ([1]; 50 mg QD, 1 evaluable): (100%) | Subjects negative for neutralizing antibodies, % ([1]; 100 mg BID, 3 evaluable): (100%) | Subjects negative for neutralizing antibodies, % ([1]; 100 mg QD, 3 evaluable): (100%) | Subjects negative for neutralizing antibodies, % ([1]; Combined doses, 8 evaluable): (100%) | NAb result of ADA-positive samples [1]: negative | Footnote d group: Baseline titers 1:50, n subjects ([2]; 25 mg BID, N=41): 0 | Peak titer group <50, n subjects ([2]; 25 mg BID, N=41): 0 | Peak titer group >50-<100, n subjects ([2]; 25 mg BID, N=41): 0 | Peak titer group ≥100-<1000, n subjects ([2]; 25 mg BID, N=41): 0 | Peak titer group ≥1000, n subjects ([2]; 25 mg BID, N=41): 0 | Positive at baseline: Baseline titers 1:50, n subjects ([2]; 25 mg BID, N=41): 0 | Treatment-boosted (footnote c): Baseline titers 1:50, n subjects ([2]; 25 mg BID, N=41): 0 | Treatment-emergent: Peak titers 1:50, n subjects ([2]; 25 mg BID, N=41): 0 | Subjects negative for treatment-emergent anti-peptide antibodies, % ([2]; 25 mg BID, N=41): 100% | Footnote d group: Baseline titers 1:50, n subjects ([2]; 25 mg QD, N=42): 0 | Peak titer group <50, n subjects ([2]; 25 mg QD, N=42): 1 | Peak titer group >50-<100, n subjects ([2]; 25 mg QD, N=42): 0 | Peak titer group ≥100-<1000, n subjects ([2]; 25 mg QD, N=42): 0 | Peak titer group ≥1000, n subjects ([2]; 25 mg QD, N=42): 0 | Positive at baseline: Baseline titers 1:50, n subjects ([2]; 25 mg QD, N=42): 0 | Treatment-boosted (footnote c): Baseline titers 1:50, n subjects ([2]; 25 mg QD, N=42): 0 | Treatment-emergent: Peak titers 1:50, n subjects ([2]; 25 mg QD, N=42): 1 | Subjects positive for treatment-emergent anti-peptide antibodies at any time, % ([2]; 25 mg QD, N=42): (2.4%) | Subjects negative for treatment-emergent anti-peptide antibodies, % ([2]; 25 mg QD, N=42): 97.6% | Subjects positive for treatment-emergent anti-peptide antibodies, % ([2]; 25 mg QD, N=42): 2.4% | Footnote d group: Baseline titers 1:50, n subjects ([2]; 50 mg QD, N=43): 3 | Peak titer group <50, n subjects ([2]; 50 mg QD, N=43): 1 | Peak titer group >50-<100, n subjects ([2]; 50 mg QD, N=43): 0 | Peak titer group ≥100-<1000, n subjects ([2]; 50 mg QD, N=43): 0 | Peak titer group ≥1000, n subjects ([2]; 50 mg QD, N=43): 0 | Positive at baseline: Baseline titers 1:50, n subjects ([2]; 50 mg QD, N=43): 3 | Subjects positive at baseline who were treatment-boosted for antibodies (footnote d: titers did not increase 2-fold), % ([2]; 50 mg QD, N=43): 7.0% | Subjects positive for anti-peptide antibodies at baseline, % ([2]; 50 mg QD, N=43): 7.0% | Treatment-boosted (footnote c): Baseline titers 1:50, n subjects ([2]; 50 mg QD, N=43): 0 | Treatment-emergent: Peak titers 1:50, n subjects ([2]; 50 mg QD, N=43): 1 | Subjects positive for treatment-emergent anti-peptide antibodies at any time, % ([2]; 50 mg QD, N=43): (2.3%) | Subjects negative for treatment-emergent anti-peptide antibodies, % ([2]; 50 mg QD, N=43): 97.7% | Subjects positive for treatment-emergent anti-peptide antibodies, % ([2]; 50 mg QD, N=43): 2.3% | Footnote d group: Baseline titers 1:50, n subjects ([2]; 100 mg BID, N=41): 0 | Peak titer group <50, n subjects ([2]; 100 mg BID, N=41): 3 | Peak titer group >50-<100, n subjects ([2]; 100 mg BID, N=41): 0 | Peak titer group ≥100-<1000, n subjects ([2]; 100 mg BID, N=41): 0 | Peak titer group ≥1000, n subjects ([2]; 100 mg BID, N=41): 0 | Positive at baseline: Baseline titers 1:50, n subjects ([2]; 100 mg BID, N=41): 0 | Treatment-boosted (footnote c): Baseline titers 1:50, n subjects ([2]; 100 mg BID, N=41): 0 | Treatment-emergent: Peak titers 1:50, n subjects ([2]; 100 mg BID, N=41): 3 | Subjects positive for treatment-emergent anti-peptide antibodies at any time, % ([2]; 100 mg BID, N=41): (7.3%) | Subjects negative for treatment-emergent anti-peptide antibodies, % ([2]; 100 mg BID, N=41): 92.7% | Subjects positive for treatment-emergent anti-peptide antibodies, % ([2]; 100 mg BID, N=41): 7.3% | Footnote d group: Baseline titers 1:50, n subjects ([2]; 100 mg QD, N=42): 0 | Peak titer group <50, n subjects ([2]; 100 mg QD, N=42): 3 | Peak titer group >50-<100, n subjects ([2]; 100 mg QD, N=42): 0 | Peak titer group ≥100-<1000, n subjects ([2]; 100 mg QD, N=42): 0 | Peak titer group ≥1000, n subjects ([2]; 100 mg QD, N=42): 0 | Positive at baseline: Baseline titers 1:50, n subjects ([2]; 100 mg QD, N=42): 0 | Treatment-boosted (footnote c): Baseline titers 1:50, n subjects ([2]; 100 mg QD, N=42): 0 | Treatment-emergent: Peak titers 1:50, n subjects ([2]; 100 mg QD, N=42): 3 | Subjects positive for treatment-emergent anti-peptide antibodies at any time, % ([2]; 100 mg QD, N=42): (7.1%) | Subjects negative for treatment-emergent anti-peptide antibodies, % ([2]; 100 mg QD, N=42): 92.9% | Subjects positive for treatment-emergent anti-peptide antibodies, % ([2]; 100 mg QD, N=42): 7.1% | Participants positive for ADA prior to the first dose (baseline) ([2]; 3 of 209, all 50 mg QD group): 1.4% | Footnote d group: Baseline titers 1:50, n subjects ([2]; Combined doses, N=209): 3 | Peak titer group <50, n subjects ([2]; Combined doses, N=209): 8 | Peak titer group >50-<100, n subjects ([2]; Combined doses, N=209): 0 | Peak titer group ≥100-<1000, n subjects ([2]; Combined doses, N=209): 0 | Peak titer group ≥1000, n subjects ([2]; Combined doses, N=209): 0 | Positive at baseline: Baseline titers 1:50, n subjects ([2]; Combined doses, N=209): 3 | Subjects positive at baseline who were treatment-boosted for antibodies (footnote d: titers did not increase 2-fold), % ([2]; Combined doses, N=209): (1.4%) | Subjects positive for anti-peptide antibodies at baseline, % ([2]; Combined doses, N=209): (1.4%) | Treatment-boosted (footnote c): Baseline titers 1:50, n subjects ([2]; Combined doses, N=209): 0 | Treatment-emergent: Peak titers 1:50, n subjects ([2]; Combined doses, N=209): 8 | Subjects positive for treatment-emergent anti-peptide antibodies at any time, % ([2]; Combined doses, N=209): (3.8%) | Subjects negative for treatment-emergent anti-peptide antibodies, % ([2]; Combined doses, N=209): (96.2%) | Subjects positive for treatment-emergent anti-peptide antibodies, % ([2]; Combined doses, N=209): (3.8%) | Improvement (reduction) in PSSD signs score from baseline [3]: significantly greater improvement | Improvement (reduction) in PSSD symptoms score from baseline [3]: significantly greater improvement | IL-17A serum levels (IL-17A): Statistically significant reductions
